Target: T1, Lysosomal acid glucosylceramidase (Mus musculus, UniProt P17439)
T1 sequence (P17439 whole entry): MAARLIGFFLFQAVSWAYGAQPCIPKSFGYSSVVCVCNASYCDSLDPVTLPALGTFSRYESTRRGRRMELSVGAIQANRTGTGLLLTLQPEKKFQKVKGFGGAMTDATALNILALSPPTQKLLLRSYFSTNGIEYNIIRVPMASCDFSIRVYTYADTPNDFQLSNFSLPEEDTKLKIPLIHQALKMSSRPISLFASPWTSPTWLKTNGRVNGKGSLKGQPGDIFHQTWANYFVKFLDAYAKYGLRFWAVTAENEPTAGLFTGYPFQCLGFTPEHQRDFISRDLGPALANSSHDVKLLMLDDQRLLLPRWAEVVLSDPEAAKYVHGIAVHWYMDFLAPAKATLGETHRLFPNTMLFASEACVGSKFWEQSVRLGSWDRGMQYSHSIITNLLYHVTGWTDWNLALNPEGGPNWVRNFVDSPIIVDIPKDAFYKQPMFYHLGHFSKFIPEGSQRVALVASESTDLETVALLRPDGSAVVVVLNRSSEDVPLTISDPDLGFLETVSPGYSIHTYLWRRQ
Assay: Compound was tested for inhibitory activity against beta-glucocerebrosidase.

| IC50 | SMILES |
| --- | --- |
| 300 nM | CCCCCCCCCCCCC/C=C/[C@@H](O)[C@H](CN[C@@H]1C=C(CO)[C@H](O)C(O)[C@@H]1O)NC(=O)CCCCCCCCCCCCCCC (some centres undefined) |
| 30 nM | CCCCCCCCN[C@@H]1C=C(CO)[C@H](O)C(O)[C@@H]1O (some centres undefined) |
| 70 nM | CCCCCCCCCCN[C@@H]1C=C(CO)[C@H](O)C(O)[C@@H]1O (some centres undefined) |
| 300 nM | CCCCCCCCCCCCCCCCCCN[C@@H]1C=C(CO)[C@H](O)C(O)[C@@H]1O (some centres undefined) |
| 300 nM | CCCCCCN[C@@H]1C=C(CO)[C@H](O)C(O)[C@@H]1O (some centres undefined) |
| 1100 nM | OC1C2O[C@H]2[C@@H](O)C(O)[C@@H]1O (some centres undefined) |
| 11000 nM | CCCCN[C@@H]1C=C(CO)[C@H](O)C(O)[C@@H]1O (some centres undefined) |
| 120 nM | CCCCCCCCCCCCCCN[C@@H]1C=C(CO)[C@H](O)C(O)[C@@H]1O (some centres undefined) |

Target: T1, Lysosomal acid glucosylceramidase

| SMILES | IC50 |
| --- | --- |
| N[C@H]1C=C(CO)C(O)[C@H](O)C1O (single isomer, unassigned) [VALIENAMINE] | Not Active |

From ChEMBL document CHEMBL1149959, “Synthesis of potent -D-glucocerebrosidase inhibitors: N-alkyl--valienamines” (Bioorg Med Chem Lett, 1996)
